# Data from patent US6060608A, “Analogs of CC-1065 and the duocarmycins” (The Scripps Research Institute, priority 1999, dated 2000).
# Columns and labels:
# L1210 = experiment: In vitro cytotoxic activity, L1210; conditions: for relative cytotoxic potency of natural versus unnatural enantiomers: N-BOC derivatives; for cytotoxic activity, ring opened precursor 115 versus cyclopropane 116: L1210; for IC50: Mus musculus, L1210, read-out: cytotoxic activity IC50
# [1] = In vitro cytotoxic activity (cell line not given); format: cell-based; conditions: for less potent than ent-(-)-1: unnatural enantiomers
# w794 duplex DNA = experiment: DNA alkylation selectivity and efficiency within w794 DNA, thermally-induced strand cleavage and PAGE; format: biochemical, SV40; conditions: for DNA alkylation less efficient than 1 or 305: 25° C., 24 h
# Description: DNA Alkylation Selectivity and Efficiency. The DNA alkylation properties of the agents were examined within w794 duplex DNA, a 144 base-pair segment of duplex DNA for which comparative results are available for related agents. The alkylation site identification and the assessment of the relative selectivity among the available sites were obtained by thermally-induced strand cleavage of the singly 5' end-labeled duplex DNA after exposure to the agents. Following treatment of the end-labeled duplex DNA with a range of agent concentrations, the unbound agent was removed by EtOH precipitation of the DNA. Redissolution of the DNA in aqueous buffer, thermolysis (100° C., 30 min) to induce strand cleavage at the sites of DNA alkylation, denaturing high resolution polyacrylamide gel electrophoresis (PAGE) adjacent to Sanger dideoxynucleotide sequencing standards, and autoradiography led to identification of the DNA cleavage and alkylation sites. The DNA alkylation reaction selectivities observed under the incubation conditions for the agents detailed herein have proven identical to the alkylation selectivities observed with shorter or extended reaction periods or when the reactions were conducted at different temperatures (37 or 4° C., 0.5-7 d). As discussed below, the rates and efficiencies but not final relative efficiencies of DNA alkylation were altered by changing the reaction temperatures.
# DNA Alkylation Properties. […] The DNA alkylation reaction was examined within w794 DNA for which comparative results are available for past agents. The alkylation site identification was obtained by thermal strand cleavage of the singly 5' end-labeled duplex DNA after exposure to the agents. Following treatment of the labeled DNA with a range of agent concentrations, the unbound agent was removed by EtOH precipitation of the DNA. Redissolution of the DNA in aqueous buffer, thermolysis at 100° C. (30 min) to induce depurination and strand cleavage at the adenine N3 or guanine N3 minor groove alkylation sites, denaturing high resolution PAGE adjacent to Sanger sequencing standards and autoradiography provided the DNA cleavage and alkylation sites.
# DNA Alkylation Studies: selectivity and Efficiency. General procedures, the preparation of singly ^32 P 5' end-labeled double stranded DNA, the agent binding studies, gel electrophoresis, and autoradiography were conducted according to standard procedures. Eppendorf tubes containing the 5' end-labeled DNA (9 μL) in TE buffer (10 mM Tris, 1 mM EDTA, pH 7.5) were treated with the agent in DMSO (1 μL at the specified concentration). The solution was mixed by vortexing and brief centrifugation and subsequently incubated at 4 or 25° C. for 24 h (natural enantiomers) and 25 or 37° C. (unnatural enantiomers) for 72 h. The covalently modified DNA was separated from unbound agent by EtOH precipitation and resuspended in TE buffer (10 μL). The solution of DNA in an Eppendorf tube sealed with parafilm was warmed at 100° C. for 30 min to induce cleavage at the alkylation sites, allowed to cool to 25° C. and centrifuged. Formamide dye (0.03% xylene cyanol FF, 0.03% bromophenol blue, 8.7% Na2 EDTA 250 mM) was added (5 μL) to the supernatant. Prior to electrophoresis, the sample was denatured by warming at 100° C. for 5 min, placed in an icebath, and centrifuged, and the supernatant (3 μL) was loaded directly onto the gel. Sanger dideoxynucleotide sequencing reactions were run as standards adjacent to the reaction samples. Polyacrylamide gel electrophoresis (PAGE) was run on an 8% sequencing gel under denaturing conditions (8 M urea) in TBE buffer (100 mM Tris, 100 mM boric acid, 0.2 mM Na2 EDTA) followed by autoradiography.
# DNA Alkylation of w794 DNA. Eppendorf tubes containing the 5'-end labeled DNA (9 μL) in TE buffer (10 mM Tris, 1 mM EDTA, pH 7.2) were treated with the agent in DMSO (1 μL at the specified concentration). […]
# [2] = Aqueous solvolysis reactivity followed by UV; format: physicochemical
# Protocol: The reactivity of 217-219 was assessed by following the solvolysis spectrophotometrically by UV at both pH 3 (50% CH3 OH-buffer, buffer=4:1:20 (v/v/v) 0.1 M citric acid, 0.2 M Na2 HPO4, H2 O) and pH 7 (1:1 H2 O--CH3 OH) measuring both the disappearance of the long-wavelength absorption band of the F2 CBI chromophore and the appearance of a short-wavelength absorption band attributable to the ring open products (FIG. 31).
# Aqueous Solvolysis Reactivity. pH 3: N-BOC-CCBI (25, 100 μg) was dissolved in CH3 OH (1.5 mL) and mixed with pH 3 aqueous buffer (1.5 mL). The buffer contained 4:1:20 (v:v:v) 0.1 M citric acid, 0.2 M Na2 HPO4 and H2 O, respectively. The solvolysis solution was sealed and kept at 25° C. protected from light. The UV spectrum was measured at regular intervals every 2 h during the first day, every 12 h for another week, and every 24 h for an additional week. The decrease in the long-wavelength absorption at 322 nm and the increase in the short-wavelength absorption at 268 nm were monitored, FIG. 1.
# pH 2: Samples of 25 (100 μg) and 26 (50 μg) were dissolved in CH3 OH (1.5 mL) and the solutions were mixed with aqueous buffer (pH 2.05, 1.5 mL). The buffer contained 4:1:20 (v:v:v) 1.0 M citric acid, 0.2 M Na2 HPO4, and H2 O, respectively. Immediately after mixing, the UV spectra of the solutions were measured against a reference solution containing CH3 OH (1.5 mL) and the aqueous buffer (1.5 mL) and these readings were used for the initial absorbance values. The solutions were stoppered, protected from the light, and allowed to stand at 25° C. UV spectra were recorded at regular intervals until constant values were obtained for the long and short wavelength absorbances. The solvolysis rate constants were determined from the slope of the lines obtained from linear least squares treatment of plots of ln[(Af -Ai)/(Af -A)] versus time using the short wavelength measurements for 25 and long wavelength measurements for 26).
# [3] = natural enantiomers, 37° C., 72 h
compound,measurement,setting,value
COc1cc2cc(C(=O)N3CC(CCl)c4c3cc(O)c3ccc(C#N)cc43)[nH]c2c(OC)c1OC (stereo not shown) [compound 34],cytotoxic activity of seco precursors versus cyclopropane containing agents,L1210,indistinguishable from the cyclopropane containing agents
"COC(=O)c1cc2c([nH]1)C(=O)C=C1N(C(=O)c3cc4ccccc4[nH]3)CC3CC123 (single isomer, unassigned) [compound 304]",reduction in cytotoxic potency relative to duocarmycin SA,[1]; natural enantiomers,6.5 -fold
same,less potent than ent-(-)-1,[1],13-18 ×
same,DNA alkylation less efficient than 1 or 305,w794 duplex DNA; natural enantiomers,20 ×
"CC(C)(C)OC(=O)N1CC2CC23C1=CC(=O)c1ccccc13 (stereo not shown) [N-BOC-CBI, reference compound]",relative cytotoxic potency of natural versus unnatural enantiomers,L1210,11 ×
same,concentration at which both enantiomers alkylate DNA,"w794 duplex DNA; FIG. 24, 37° C., 48 h",10^-2 M
same,solvolysis stability/reactivity,[2],stable
same,half-life,"[2]; 50% ch3oh-buffer, pH 3",7980 min
same,solvolysis rate constant k,"[2]; pH 3, 50% CH3OH-buffer",1.45e-06 s⁻¹
"COC(=O)c1cc2c([nH]1)C(=O)C=C1N(C(=O)c3cc4cccc(OC)c4[nH]3)CC3CC123 (single isomer, unassigned) [compound 307]",cytotoxic activity relative to duocarmycin SA or 304 (words),[1],equipotent with (+)-304
same,properties relative to duocarmycin SA or 304,[1],properties more analogous to 304
same,less potent than ent-(-)-1,[1],13-18 ×
same,DNA alkylation less efficient than 1 or 305,w794 duplex DNA; natural enantiomers,5-10 ×
CC(C)(C)OC(=O)N1CC2C(F)(F)C23C1=CC(=O)c1ccccc13 (stereo not shown) [compound 219],solvolysis stability/reactivity,[2],No substantial distinction in the reactivity of 217 and 219 was observed
same,half-life,"[2]; 1:1 h2o-ch3oh, pH 7",140 min
same,half-life,"[2]; 50% ch3oh-buffer, pH 3",15.6 min
same,solvolysis rate constant k,"[2]; pH 3, 50% CH3OH-buffer",0.000705 s⁻¹
same,solvolysis rate constant k,"[2]; pH 7, 1:1 H2O-CH3OH",8.27e-05 s⁻¹
N#Cc1ccc2c(O)cc3c(c2c1)C(CCl)CN3C(=O)c1cc2cc(NC(=O)c3cc4ccccc4[nH]3)ccc2[nH]1 (stereo not shown) [compound 36],cytotoxic activity of seco precursors versus cyclopropane containing agents,L1210,indistinguishable from the cyclopropane containing agents
CC(=O)N1CC2C(F)(F)C23C1=CC(=O)c1ccccc13 (stereo not shown) [compound 217],solvolysis reactivity relative to corresponding CBI agent lacking the two fluorines,[2],500 ×
same,solvolysis stability/reactivity,[2],No substantial distinction in the reactivity of 217 and 219 was observed
"COC(=O)c1cc2c([nH]1)C(=O)C=C1N(C(=O)c3cc4ccc(OC)cc4[nH]3)CC3CC123 (single isomer, unassigned) [compound 306]",cytotoxic activity relative to duocarmycin SA or 304 (words),[1],intermediate activity
same,properties relative to duocarmycin SA or 304,[1],properties more analogous to 304
same,less potent than ent-(-)-1,[1],13-18 ×
same,DNA alkylation less efficient than 1 or 305,w794 duplex DNA; natural enantiomers,5-10 ×
"CCOC(=O)CCC(=O)N1CC(CCl)c2c1cc(O)c1ccccc21 (stereo not shown) [compound 115, 1-Chloromethyl-3-(4-ethoxy-1,4-dioxobutyl)-5-hydroxy-1,2-dihydro-3H-benz[e]indole]","cytotoxic activity, ring opened precursor 115 versus cyclopropane 116",L1210,no distinctions were observed
same,IC50,L1210,5 to 6 nM
"CC(C)(C)OC(=O)N1CC(CCl)c2c1cc(O)c1ccc(C#N)cc21 (stereo not shown) [compound 23, 3-(tert-Butyloxycarbonyl)-1-(chloromethyl)-8-cyano-5-hydroxy-1,2-dihydro-3H-benz[e]indole]",cytotoxic activity of seco precursors versus cyclopropane containing agents,L1210,indistinguishable from the cyclopropane containing agents
"CCOC(=O)CCC(=O)N1CC2CC23C1=CC(=O)c1ccccc13 (stereo not shown) [compound 116, N^2-(4-ethoxy-1,4-dioxobutyl)-1,2,9,9a-tetrahydrocyclopropa[c]benz[e]indole-4-one]","cytotoxic activity, ring opened precursor 115 versus cyclopropane 116",L1210,no distinctions were observed
same,IC50,L1210,5 to 6 nM
same,more effective at alkylating DNA than N-BOC-CBI (123),w794 duplex DNA; natural enantiomer,10-100 ×
"O=C1C=C2NCC3C(F)(F)C23c2ccccc21 (stereo not shown) [compound 218, 9,9-difluoro-1,2,9,9a-tetrahydrocyclopropa[c]benzo[e]indol-4-one]",solvolysis reactivity relative to corresponding CBI agent lacking the two fluorines,[2],approximately 220 ×
same,half-life,"[2]; 50% ch3oh-buffer, pH 3",252 min
same,solvolysis rate constant k,"[2]; pH 3, 50% CH3OH-buffer",4.54e-05 s⁻¹
"COC(=O)c1cc2c([nH]1)C(=O)C=C1N(C(=O)c3cc4cc(OC)ccc4[nH]3)CC3CC123 (single isomer, unassigned) [ent-(-)-305]",cytotoxic activity relative to duocarmycin SA or 304 (words),[1],more closely approached the full activity of ent-(-)-1
N#Cc1ccc2c(O)cc3c(c2c1)C(CCl)CN3C(=O)c1cc2c3c(ccc2[nH]1)N(C(N)=O)CC3 (stereo not shown) [compound 38],cytotoxic activity of seco precursors versus cyclopropane containing agents,L1210,indistinguishable from the cyclopropane containing agents
"N#Cc1ccc2c(c1)C13CC1CNC3=CC2=O (stereo not shown) [compound 26, 7-Cyano-1,2,9,9a-tetrahydrocyclopropa[c]benz[e]indol-4-one]",half-life,"[2]; ch3oh-buffer 1:1, pH 2",5490 min
"COc1ccc2c(c1)C13CC1CN(C(=O)OC(C)(C)C)C3=CC2=O (stereo not shown) [N-BOC-MCBI, reference compound]",relative cytotoxic potency of natural versus unnatural enantiomers,L1210,2 ×
same,concentration at which DNA alkylation is detectable,w794 duplex DNA; [3],10^-3 M
same,concentration at which DNA alkylation is prominent,w794 duplex DNA; [3],10^-2 M
